# Earlier results in patent publication US20160128912A1, “Personal Care Compositions and Hangers” (The Procter & Gamble Company, priority 2014, published 2016).
row,Compound,Log (water Solubility in mol/L)
1,C=CCCCCCCCCC(=O)O [Undecylenic Acid],−3.15
2,OCc1ccccc1 [benzyl Alcohol],−0.47
3,"Oc1cc(Cl)ccc1Oc1ccc(Cl)cc1Cl [Triclosan, reference compound]",−2.46
4,"O=C(O)c1ccccc1O [Salicylic acid, reference compound]",−1.41

# The remaining lines, values ahead:
row,Log (water Solubility in mol/L),Compound
1,−3.08,CCCCCCC(O)CO (centres unmarked) [caprylyl glycol]
2,−0.33,C/C=C/C=C/C(=O)O [sorbic acid]
3,−0.83,OCCc1ccccc1 [phenethyl alcohol]
4,−1.91,CCOC(=O)c1ccc(O)cc1 [ethyl paraben]
